Like-named read-outs stand apart in the source and are kept apart here.
Legend:
UPP-2 = settings: mouse liver tissue; cited from earlier work
UPP-1-TG mice [1] = assay: CARS imaging of liver lipid accumulation after dietary Urd supplementation; assay type: in vivo, mouse; settings: Urd 2 to 5% in dry diet
From the text: Images are presented as 3-D stacks. (B) is a bar graph representing quantitative analysis of liver lipid in 18 probed volumes with xyz dimensions of 125×125×25 μm. Three mice per group were used for analysis. Lipid level is defined as the square root of the CARS signal arising from the lipid droplets. Lipid level is normalized to 1 for WT mice. Error bars represent the standard deviations. (C) is a graph depicting Raman spectroscopy analysis of lipid droplet composition.
Using CARS microscopy to image 100-micron thick sections of explanted liver tissues, the effect of the disruption of URD homeostasis on liver lipids was evaluated. As reprinted in FIG. 1, a dramatic difference in liver lipid accumulation among WT, UPP-1-KO and UPP-1-TG mice was observed. […] To confirm the results obtained through CARS microscopy, Oil Red O staining (specific for neutral triglycerides and lipids) of the frozen liver sections was conducted, which yielded similar results to the CARS technology (data not shown).

UPP-1-TG mice [2] = assay: Raman spectroscopy of lipid-chain unsaturation in liver lipid droplets; assay type: in vivo, mouse; settings: UPP-1-TG mice fed with Urd
From the text: Red and blue arrows point to 1445 cm^−1 and 1660 cm^−1 peaks, respectively. (B) is a graph showing that 11660/11445 is linearly dependent on lipid-chain unsaturation. (C) is a bar graph depicting lipid-chain unsaturation of liver lipid droplets as a function of WT and UPP-1-TG mice. Error bars represent standard deviation across 18 lipid droplets measured.
In control UPP-1-TG mice, the value of 11660/11445, which is a reliable measure of lipid-chain unsaturation (FIG. 4A-B; Rinia, H. A., et al (2008) Biophysical Journal 95: 4908-4914, 2008), was 1.05 (FIG. 4C). In UPP-1-TG mice fed with Urd, the 11660/11445 value of liver lipid droplets was 0.3. The 11660/11445 value of liver lipid droplets was 0.8 for control WT mice.

[3] = tested on: Primary hepatocytes from UPP-1-TG mice; assay: Intracellular lipid droplet accumulation in primary hepatocytes (CARS); assay type: cell-based, mouse; settings: UPP-1-TG primary hepatocytes, 24 hour incubation, 100 μM Urd
From the text: (B) is a bar graph representing quantitative analysis of intracellular lipid level in 15 isolated hepatocytes from each group. Intracellular lipid level is defined as the square root of the CARS signal arising from the intracellular lipid droplets of each hepatocyte. Intracellular lipid level is normalized to 1 for WT hepatocytes.
To further confirm our results and to provide a more practical in vitro method, short term cultures of primary liver hepatocytes were generated. WT and UPP-1-TG mouse hepatocytes were isolated using a two-step collagenase perfusion technique initially described by Seglen (Seglen, P.O. (1976) Methods Cell Biol. 13: 29-83). Viability ranged from 80-90% as determined by trypan blue exclusion. Hepatocyte enrichment reached approximately 85-90%. Cells were monitored for albumin expression through 72 hours, with no discernible differences when compared to the initial isolation.

[4] = Fate of an i.p. tracer dose of [3H]Urd in mouse plasma; assay type: in vivo; settings: for half-life: plasma, ip
From the text: The UPP-1-KO mouse was created by replacing a 2.5 kb fragment of the UPP-1 gene (including exons 4 and 5) with a 1.6 kb neomycin resistance expression cassette. See, e.g., Cao, D. et al. (2002) Cancer Res. 62: 2313-2317 and Cao, D. et al. (2005) J. Biol. Chem. 280: 21169-21175. […] The absence of UPP-1 phosphorolytic (UPase) activity was confirmed by determining the fate of a tracer dose (25 μCi/mouse) of [^3H]Urd injected intraperitoneally (i.p.) in mice. A very rapid disappearance of [^3H]Urd from the plasma of wild-type (WT) mice was observed, with a t1/2, of approximately […] due to active phosphorolysis.
Enzymatic activity in liver was 10.7±0.3 nmol/hr/mg for the WT animals compared to 252±68 nmol/hr/mg for the transgenic. In WT mice, a tracer dose of [^3H]Urd (25 μCi, i.p.) was rapidly degraded with a t1/2, of approximately 4 minutes. […] Table 1 summarizes the concentrations of URD in WT C57BL/6 mice, the UPP-1-KO and the UPP-1-TG models.

SMILES: O=S(=O)(c1ccccc1)N(CC(F)(F)F)c1ccc(C(O)(C(F)(F)F)C(F)(F)F)cc1 [T0901317]
- effect on UPP-2 expression in mouse liver (UPP-2): potent induction

SMILES: O=c1ccn([C@@H]2O[C@H](CO)[C@@H](O)[C@H]2O)c(=O)[nH]1 [Urd, uridine]
- reduction of liver lipid accumulation (UPP-1-TG mice [1]): ~15 fold
- 11660/11445 value of liver lipid droplets (lipid-chain unsaturation) (UPP-1-TG mice [2]): 0.3
- reduction in intracellular lipid droplet accumulation [3]: 10 fold

SMILES: O=c1ccn([C@@H]2O[C@H](CO)[C@@H](O)[C@H]2O)c(=O)[nH]1 [[^3H]Urd]
- half-life ([4]; C57BL/6, mouse, 25 μCi/mouse, wild-type (WT) mice, tracer dose 25 μCi/mouse i.p., read-out: [3H]Urd plasma t1/2): ~4 min
- [3H]Urd detectability after administration ([4]; UPP-1-TG (ubiquitous UPP-1 transgenic), mouse, in vivo, 15 minutes): no [^3H]Urd detectable
- half-life ([4]; UPP-1-TG (ubiquitous UPP-1 transgenic), mouse, 25 μCi, UPP-1-TG mice, tracer dose 25 μCi i.p., read-out: [3H]Urd t1/2): < 0.5 min
- half-life ([4]; mouse, 25 μCi/mouse, UPP-1-KO mice, tracer dose 25 μCi/mouse i.p., read-out: [3H]Urd plasma t1/2): 15 to 18 min
